Experimental data: patent US7935722B2 (Eli Lilly and Company, priority 2005, dated 2011)
Where two headings read alike, the source gives them in different places.

Tests used:
[1] = biological target: T1, human AR (androgen receptor) (Homo sapiens, UniProt P10275); experiment: Steroid hormone nuclear receptor binding assay, AR binding
T1 construct: expressed in transfected cells; host or cells: 293 cells (293-AR lysate)
T1 sequence (P10275 1-920): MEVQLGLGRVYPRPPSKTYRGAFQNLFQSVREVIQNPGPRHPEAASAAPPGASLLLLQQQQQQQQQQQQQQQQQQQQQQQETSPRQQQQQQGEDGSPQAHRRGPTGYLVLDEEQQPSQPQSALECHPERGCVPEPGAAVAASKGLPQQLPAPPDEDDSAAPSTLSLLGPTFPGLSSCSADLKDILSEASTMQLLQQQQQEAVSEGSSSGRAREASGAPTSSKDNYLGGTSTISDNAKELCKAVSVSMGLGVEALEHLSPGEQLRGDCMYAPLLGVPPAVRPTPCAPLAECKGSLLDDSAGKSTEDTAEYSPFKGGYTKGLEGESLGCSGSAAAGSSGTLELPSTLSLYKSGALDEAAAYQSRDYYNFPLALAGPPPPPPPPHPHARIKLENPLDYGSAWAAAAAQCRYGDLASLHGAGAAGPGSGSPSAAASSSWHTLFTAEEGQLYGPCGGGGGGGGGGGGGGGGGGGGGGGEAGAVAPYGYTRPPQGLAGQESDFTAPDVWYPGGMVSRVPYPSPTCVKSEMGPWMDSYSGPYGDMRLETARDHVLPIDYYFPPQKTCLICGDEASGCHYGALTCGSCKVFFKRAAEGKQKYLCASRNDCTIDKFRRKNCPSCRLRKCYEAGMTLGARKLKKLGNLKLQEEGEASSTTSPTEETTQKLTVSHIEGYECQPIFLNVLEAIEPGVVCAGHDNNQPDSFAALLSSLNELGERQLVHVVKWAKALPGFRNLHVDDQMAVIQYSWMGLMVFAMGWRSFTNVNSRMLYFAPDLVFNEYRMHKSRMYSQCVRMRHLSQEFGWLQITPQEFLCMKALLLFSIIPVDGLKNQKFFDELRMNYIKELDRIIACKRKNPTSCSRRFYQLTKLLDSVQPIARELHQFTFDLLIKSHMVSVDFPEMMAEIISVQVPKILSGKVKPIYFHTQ
Method: Cell lysates from 293 cells overexpressing human GR (glucocorticoid receptor), AR (androgen receptor), MR (mineralocorticoid receptor) or PR (progesterone receptor) are used for competition binding assays to determine Ki values for test compounds. […] Competing compounds are added at various concentrations ranging from about 0.01 nM to 10 μM. Non-specific binding is determined in the presence of 500 nM dexamethasone for GR binding, 500 nM aldosterone for MR binding, or 500 nM methyltrienolone for AR and PR binding. The binding reaction (140 μl) is incubated for overnight at 4° C., then 70 μl of cold charcoal-dextran buffer (containing per 50 ml of assay buffer, 0.75 g of charcoal and 0.25 g of dextran) is added to each reaction. Plates are mixed 8 minutes on an orbital shaker at 4° C. Plates are then centrifuged at 3,000 rpm at 4° C. for 10 minutes. An aliquot of 120 μl of the mix is transferred to another 96-well plate and 175 μl of Wallac Optiphase “Hisafe 3” scintillation fluid is added to each well. Plates are sealed and shaken vigorously on an orbital shaker. After an incubation of 2 hrs, plates are read in a Wallac Microbeta counter. […] The Kd for ^3H-dexamethasone for GR binding, ^3H-methyltrienolone for AR binding, ^3H-aldosterone for MR binding, or ^3H-methyltrienolone for PR binding, is determined by saturation binding. The IC50 values for test compounds are converted to Ki using Cheng-Prusoff equation and the Kd determined by saturation binding assay. […]

[2] = biological target: T2, human androgen receptor (AR) (Homo sapiens, UniProt P10275); experiment: C2C12 AR/ARE reporter assay; type: cell-based
T2 construct: expressed in transfected cells; host or cells: mouse myoblast C2C12 cells, transiently co-transfected
T2 sequence (P10275 1-920): T1 sequence (P10275 1-920)
Method: As an indicator of agonist activity in muscle tissue, the C2C12 AR/ARE reporter assay is performed. Briefly, mouse myoblast C2C12 cells are co-transfected using FuGENE™. […] Cells are transfected in T150 cm^2 flasks in DMEM media with 4% or 10% Fetal Bovine Serum […]. After a 5 hour incubation, transfected cells are trypsinized, plated in 96 well dishes in DMEM media containing 10% charcoal-stripped FBS, incubated for 2 h and then exposed to various concentrations of test compounds ranging from about 0.01 nM to 10 μM. After 48 h of incubations with compounds, cells are lysed and luciferase activity is determined using standard techniques. Data is fit to a 4 parameter-fit logistics to determine EC50 values. The % efficacy is determined versus maximum stimulation obtained with 10 nM methyltrienolone. […]

[3] = C2C12, read-out: C2C12 % Efficacy
[4] = average of n trials, read-out: AR binding Ki
[5] = C2C12 AR/ARE reporter assay, average of n trials, read-out: C2C12 % Efficacy
[6] = C2C12 AR/ARE reporter assay, average of n trials, read-out: C2C12 EC50

SMILES | Ki [1] [nM] | EC50 [2] [nM] | Emax [2, 3] [%] | Ki [1, 4] [nM] | Emax [2, 5] [%] | EC50 [2, 6] [nM]
CC(C)C(=O)NC1CCc2c(c3cc(OCC4CC4)ccc3n2Cc2cccc(F)c2)C1 (stereo not drawn) [Example 92, N-[6-Cyclopropylmetboxy-9-(3-fluoro-benzyl)-2,3,4,9-tetrahydro-1H-carbazol-3-yl]-isobutyramide] | 4.1 | 3 | 73.4 |  |  | 
CCOc1ccc2c(c1)c1c(n2Cc2cccc(F)c2)CCC(NC(=O)C(C)C)C1 (stereo not drawn) [Example 93, N-[6-Ethoxy-9-(3-fluoro-benzyl)-2,3,4,9-tetrahydro-1H-carbazol-3-yl]-isobutyramide] | 6.8 | 5 | 82.4 |  |  | 
CC(C)Oc1ccc2c(c1)c1c(n2Cc2cccc(F)c2)CCC(NC(=O)C(C)C)C1 (stereo not drawn) [Example 94, N-[9-(3-Fluoro-benzyl)-6-isopropoxy-2,3,4,9-tetrahydro-1H-carbazol-3-yl]-isobutyramide] | 38.3 | 41 | 101 |  |  | 
CCCOc1ccc2c(c1)c1c(n2Cc2cccc(F)c2)CCC(NC(=O)C(C)C)C1 (stereo not drawn) [Example 95, N-[9-(3-Fluoro-benzyl)-6-propoxy-2,3,4,9-tetrahydro-1H-carbazol-3-yl]-isobutyramide] | 12.4 | 18.3 | 79.6 |  |  | 
CC(C)C(=O)NC1CCc2c(c3cc(Cl)ccc3n2Cc2ccccc2O)C1 (stereo not drawn) [Example 101, N-[6-Chloro-9-(2-hydroxy-benzyl)-2,3,4,9-tetrahydro-1H-carbazol-3-yl]-isobutyramide] | 5.2 | 4.1 | 65.3 |  |  | 
CC(C)C(=O)NC1CCc2c(c3cc(Cl)ccc3n2Cc2cccc(O)c2)C1 (stereo not drawn) [Example 102, N-[^6-Chloro-9-(3-hydroxy-benzyl)-2,3,4,9-tetrahydro-1H-carbazol-3-yl]-isobutyramide] | 16.8 | 300 | 39.6 |  |  | 
CC(C)C(=O)NC1CCc2c(c3cc(Cl)ccc3n2Cc2ccc(O)cc2)C1 (stereo not drawn) [Example 103, N-[6-Chloro-9-(4-hydioxy-benzyl)-2,3,4,9-tetrahydro-1H-carbazol-3-yl]-isobutyramide] |  |  |  | 51.4 | 32.8 | 293
CC(C)C(=O)NC1CCc2c(c3cc(Cl)ccc3n2Cc2ccccc2[N+](=O)[O-])C1 (stereo not drawn) [Example 104, N-[6-Chloro-9-(2-nitro-benzyl)-2,3,4,9-tetrahydro-1H-carbazol-3-yl]-isobutyramide] |  |  |  | 22.5 | 71.6 | 555
COc1ccccc1Cn1c2c(c3cc(C#N)ccc31)CC(NC(=O)C(C)C)CC2 (stereo not drawn) [Example 105, N-[6-Cyano-9-(2-methoxy-benzyl)-2,3,4,9-tetrahydro-1H-carbazol-3-yl]-isobutyramide] | 7.7 | 30.7 | 97.5 |  |  | 
CC(C)C(=O)NC1CCc2c(c3cc(Cl)ccc3n2Cc2ccccc2N)C1 (stereo not drawn) [Example 106, N-[9-(2-Amino-benzyl)-6-chloro2,3,4,9-tetrahydro-1H-carbazol-3-yl]-isobutyramide] |  |  |  | 8.2 | 82.1 | 2.3
CC(C)C(=O)NC1CCc2c(c3cc(C#N)ccc3n2Cc2ccccc2O)C1 (stereo not drawn) [Example 107, N-[6-Cyano-9-(2-hydroxy-benzyl)-2,3,4,9-tetrahydro-1H-carbazol-3-yl]-isobutyrarmide] | 3.1 | 0.5 | 86.2 |  |  | 
CC(C)C(=O)NC1CCc2c(c3cc(C#N)ccc3n2Cc2ccccc2[N+](=O)[O-])C1 (stereo not drawn) [Example 108, N-[6-Cyano-9-(2-nitro-benzyl)-2,3,4,9-tetrahydro-1H-carbazol-3-yl]-isobutyramide] | 57.3 | 718 | 58.4 |  |  | 
CC(C)C(=O)NC1CCc2c(c3cc(C#N)ccc3n2Cc2ccccc2N)C1 (stereo not drawn) [Example 109, N-[9-(2-Amino-benzyl)-6-cyano-2,3,4,9-tetrahydro-1H-carbazol-3-yl]-isobutyramide] | 15.9 | 2.3 | 76.9 |  |  | 
CCNc1ccccc1Cn1c2c(c3cc(C#N)ccc31)CC(NC(=O)C(C)C)CC2 (stereo not drawn) [Example 112, N-[6-Cyano-9-(2-ethylamino-benzyl)-2,3,4,9-tetrahydro-1H-carbazol-3-yl]-isobutyramide] | 12.7 | 27.2 | 101 |  |  | 
CC(C)C(=O)NC1CCc2c(c3cc(C#N)ccc3n2Cc2ccccc2NS(C)(=O)=O)C1 (stereo not drawn) [Example 113, N-[6-Cyano-9-(2-methanesulfonylamino-benzyl)-2,3,4,9-tetrahydro-1H-carbazol-3-yl]-isobutyramide] | 21.4 | 35.8 | 97.7 |  |  | 
CC(C)C(=O)NC1CCc2c(c3cc(C#N)ccc3n2Cc2ccccc2N(C)C)C1 (stereo not drawn) [Example 114, N-[6-Cyano-9-furan-(2-dimethylamino-benzyl)-2,3,4,9-tetrahydro-1H-carbazol-3-yl]-isobutyramide] | 20.8 | 98.7 | 118 |  |  | 
CC(C)C(=O)NC1CCc2c(c3cc(C#N)c(F)cc3n2Cc2cccc(F)c2)C1 (stereo not drawn) [Example 115, N-[6-Cyano-7-fluoro-9-(3-fluoro-benzyl)-2,3,4,9-tetrahydro-1H-carbazol-3-yl]-isobutyramide] | 3.2 | 4.3 | 74.7 |  |  | 
CC(C)C(=O)NC1CCc2c(c3c(F)c(C#N)ccc3n2Cc2cccc(F)c2)C1 (stereo not drawn) [Example 116, N-[6-Cyano-5-fluoro-9-(3-fluoro-benzyl)-2,3,4,9-tetrahydro-1H-carbazol-3-yl]-isobutyramide] | 3.4 | 2.7 | 78.3 |  |  | 
CC(C)C(=O)NC1CCc2c(c3c(Cl)c(C#N)ccc3n2Cc2cccc(F)c2)C1 (stereo not drawn) [Example 117, N-[5-Chloro-6-cyano-9-(3-fluoro-benzyl)-2,3,4,9-tetrahydro-1H-carbazol-3-yl]-isobutyramide] | 4.5 | 12 | 76.7 |  |  | 
CC(C)C(=O)NC1CCc2c(c3cc(C#N)c(Cl)cc3n2Cc2cccc(F)c2)C1 (stereo not drawn) [Example 118, N-[7-Chloro-6-cyano-9-(3-fluoro-benzyl)-2,3,4,9-tetrahydro-1H-carbazol-3-yl]-isobutyramide] | 5.9 | 31.7 | 124 |  |  | 
CC(C)C(=O)NC1CCc2c(c3cc(C#N)cc(Cl)c3n2Cc2cccc(F)c2)C1 (stereo not drawn) [Example 119, N-[8-Chloro-6-cyano-9-(3-fluoro-benzyl)-2,3,4,9-tetrahydro-1H-carbazol-3-yl]-isobutyramide] |  |  |  | 7.3 | 99.1 | 34.2
CC(C)C(=O)NC1CCc2c(c3cc(Br)cc(F)c3n2Cc2cccc(F)c2)C1 (stereo not drawn) [Example 120, N-[6-Bromo-8-fluoro-9-(3-fluoro-benzyl)-2,3,4,9-tetrahydro-1H-carbazol-3-yl]-isobutyramide] | 7 | 51.4 | 101 |  |  | 
